Assay results taken from ChEMBL document CHEMBL3817775, “Kinetic and Structural Insights into the Mechanism of Binding of Sulfonamides to Human Carbonic Anhydrase by Computational and Experimental Studies” (J Med Chem, 2016).

Key:
Carbonic anhydrase 2 [1] = target: T1, Carbonic anhydrase 2 (Homo sapiens, UniProt P00918); experiment: Binding affinity to GST-fused human carbonic anhydrase-2 expressed in Escherichia coli BL21 codon plus cells assessed as steady state dissociation constant by SPR method
Carbonic anhydrase 2 [2] = target: T1, Carbonic anhydrase 2; experiment: Binding affinity to GST-fused human carbonic anhydrase-2 expressed in Escherichia coli BL21 codon plus cells assessed as dissociation constant by SPR method

Kd (Carbonic anhydrase 2 [1]) [µM]	Kd (Carbonic anhydrase 2 [2]) [µM]	SMILES
125	98.3	CCc1ccc(S(N)(=O)=O)cc1
60.6	57.8	CCCc1ccc(S(N)(=O)=O)cc1
